The values that follow are results of earlier work, collected in US6528013B1, “Uncomplexed cyclodextrin compositions for odor and wrinkle control” (The Procter & Gamble Company, priority 1998, dated 2003).

Molecules are shown by their SMILES.

Consider `[H]/N=C(\N/C(=N/[H])NCCCCCCNC(=N)NC(=N)Nc1ccc(Cl)cc1)Nc1ccc(Cl)cc1` [chlorhexidine diacetate, 1,1′-hexamethylene bis(5-(p-chlorophenyl)biguanide), reference compound], for which the solubility in water entry was “about 1.8%”.
Regarding `O=[N+]([O-])C(Br)(CO)CO` [Bronopol, 2-bromo-2-nitropropane-1,3-diol], the solubility in water entry was “about 25%”.
With `OCCc1ccccc1` [2-phenylethanol], the solubility in water result is “about 2%”.
Regarding `[Na+].[O-][n+]1ccccc1[S-]` [sodium pyrithione], the solubility in water entry is given as “about 50%”.
Turning to `O=[N+]([O-])C1(Br)COCOC1` [Bronidox L, 5-bromo-5-nitro-1,3-dioxane], the solubility in water result is reported as “about 0.46%”.
With `[H]/N=C(\N/C(=N/[H])NCCCCCCNC(=N)NC(=N)Nc1ccc(Cl)cc1)Nc1ccc(Cl)cc1` [chlorhexidine digluconate, 1,1′-hexamethylene bis(5-(p-chlorophenyl)biguanide), reference compound], the solubility in water result is on record as “about 70%”.
Regarding `CC1(C)C(=O)N(CO)C(=O)N1CO` [DMDM hydantoin, 1,3-bis(hydroxymethyl)-5,5-dimethyl-2,4-imidazolidinedione], the solubility in water entry is on record as “more than 50%”.
Consider `OCCOc1ccccc1` [2-phenoxyethanol], for which the solubility in water entry is on record as “about 2.67%”.
In the case of `ClC=CC[N+]12CN3CN(CN(C3)C1)C2.[Cl-]` [Dowicil 200, 1-(3-Chlorallyl)-3,5,7-triaza-1-azoniaadamantane chloride], the “solubility in water” value is listed as “freely soluble in water”.
Turning to `CC(C)(O)C(Cl)(Cl)Cl` [chlorobutanol, 1,1,1-Trichloro-2-methylpropan-2-ol, reference compound], the solubility in water result is listed as “about 0.8%”.
On to `OCc1ccccc1` [benzyl alcohol], for which the solubility in water result is recorded as “about 4%”.
